In patent US20110207817A1, “ANTI-INFLAMMATORY COMPOUNDS AND COMPOSITIONS THEREOF” (priority 2008, published 2011):

What was measured:
Type in all cases: cell-based
[1] = tested on: Human Gingival Fibroblast (HGF) cells; assay: PGE2 release from LPS-irritated Human Gingival Fibroblast cells, neat solution (Example 1); settings: for PGE2 Release (with LPS): 2 μg/mL P. gingivalis LPS, negative control without LPS = 100%
Description: For Examples 1 through 3, three sets of cell culture experiments were conducted in order to establish the anti-inflammatory efficacy of sodium propyl paraben. In all cases, in-vitro testing was conducted using Human Gingival Fibroblast cells suspended in low serum media. To irritate the cells, 2 μg/mL lipopolysaccharide (LPS) derived from P. gingivalis was added to the media. Sodium propyl paraben was added either directly to the media or incorporated into an adhesive matrix which was then suspended into the media by means of a permeable plastic insert. Cellular response was quantified by the presence of Prostaglandin E2 (PGE2), a cytokine associated with cellular irritation and inflammation, following an incubation period. Data is reported below after normalizing the level of PGE2 release of a negative control to “100%”. In-vitro testing was conducted using Human Gingival Fibroblast (HGF) cells that had been purchased from ScienCell (Carlsbad, Calif.). Prior to use, the cells had been grown in a 37° C. incubator with 5% CO2 and 95% humidity. Cells were maintained in high glucose Dulbecco's Modified Eagle's Medium (Mediatech, Manassas, Va.) with a 10% addition of heat inactivated Fetal Bovine Serum (Mediatech) and a 1% addition of Penicillin-Streptomycin 100× solution (Mediatech). Cells that had been previously frozen for long-term storage were allowed to recover/expand for at least one passage before being utilized for experimentation. To plate the cells, the maintenance medium was aspirated and the cells were washed with Hank's Balanced Salt Solution (Mediatech). Subsequently, the HBSS was aspirated and a trypsin-EDTA solution (Mediatech) was added to ensure that the cells released from the tissue culture plastic. Maintenance medium was reapplied and fractions of the solution containing the cells were transferred to a multi-well plate. After transfer, incubation was conducted to expand the cell population to 80% confluency. When the desired level of confluency was achieved, the maintenance medium was aspirated and one of several test solutions was added. For a negative control, a low serum medium was prepared that contained 0.5% of Fetal Bovine Serum (Mediatech) and 581.08 mg/L of L-gluatmine powder (Sigma-Aldrich, Milwaukee, Wis.) in DMEM High Glucose Media without Phenol Red and L-Glutamine (VWR Scientific, West Chester, Pa.). Low serum media were also prepared with the addition of 1, 10, or, 100 μg/mL of sodium propyl paraben (Sigma-Aldrich). […] An ELISA kit from R&D Systems (Minneapolis, Minn.) was used to quantify the release of PGE2 from the cells. […] The quantity of PGE2 reported by the assay was normalized by the percentage of viable cells or total protein. […]

[2] = tested on: Mouse macrophage Raw 264.7 cells; assay: LPS-induced PGE2 release from Raw 264.7 cells (Example 4)
Description: (§1) In the presence and absence of sodium propyl paraben, mouse macrophage cells (RAW 264.7) and human gingival cells (HGF) were stimulated with LPS and the levels of inflammatory mediators Prostaglandin E2 (PGE2) and interleukin 8 (IL-8) in the cell supernatants were measured. While LPS administration increased the secretion of inflammatory mediators, sodium propyl paraben decreased LPS induced secretion of these mediators in a dose dependent manner. Sodium propyl paraben was identified as a novel anti-inflammatory agent, inhibiting the secretion of inflammatory mediators from both leukocytes and gingival fibroblasts. Mouse macrophage Raw 264.7 cells and human gingival fibroblast HGF cells were purchased from ATCC (Manassas, Va.) and ScienCell LLC (Carlsbad, Calif.), respectively. All of the culturing reagents were purchased from Mediatech (Manassas, Va.) unless otherwise stated. Both cell lines were cultured in a humidified incubator at 37° C. and in the presence of 5% CO2 and maintained in Dulbecco's Modified Eagle Medium (DMEM, 4.5 g/l glucose) supplemented with 10% Fetal Bovine Serum (FBS) and 1% penicillin-streptomycin. […] The level of PGE2 or IL-8 was analyzed using commercially available enzyme-linked immunosorbent assay (ELISA) kits (R&D Systems, Minneapolis, Minn.). […]

[3] = tested on: human gingival fibroblast HGF cells; assay: LPS-mediated IL-8 production (Example 4)
Description: as §1

[4] = tested on: human gingival fibroblast HGF cells; assay: LPS-induced PGE2 release from HGF cells (Example 4); settings: 100 μg/ml, without LPS
Description: as §1

SMILES	PGE2 Release (with LPS) ([1]; 1 μg/mL in low serum media) [%]	PGE2 Release (with LPS) ([1]; 10 μg/mL in low serum media) [%]	PGE2 Release (with LPS) ([1]; 100 μg/mL in low serum media) [%]	PGE2 Release (without LPS) ([1]; 100 μg/mL in low serum media, no LPS, negative control = 100%) [%]	LPS-elevated release of PGE2 ([2]; 1, 10 and 100 μg/ml, PG-LPS 2 μg/ml, FIG. 1A)	LPS mediated IL-8 production ([3]; 1, 10 or 100 μg/ml, PG-LPS 2 μg/ml, FIG. 1C)	Induction of PGE2 by compound alone ([2]; 100 μg/ml, without LPS)	Induction of PGE2 by compound alone [4]	Induction of IL-8 by compound alone ([3]; 100 μg/ml, without LPS, either cell model)
CCCOC(=O)c1ccc(O)cc1.[Na] [Sodium Propyl Paraben, propyl 4-hydroxybenzoate, sodium salt]	124 ± 52	103 ± 23	84 ± 62	62 ± 37	reduced to basal level	reduced LPS mediated IL-8 production in a dose dependent manner	–	–	–
CCCOC(=O)c1ccc(O)cc1 [propyl paraben, propyl 4-hydroxybenzoate]	–	–	–	–	–	–	not observed	not observed	not observed
